Legend:
[1] = test system: Ishikawa endometrial adenocarcinoma cell line; experiment: Alkaline phosphatase (AlkP) activity in Ishikawa cells; format: cell-based, human; conditions: for Relative alkaline phosphatase activity: 72 h, DMSO set to 1; for effect on AlkP activity (in words): 72 h treatment, 5-dose assay 1 nM to 10 µM
Method: Alkaline phosphatase (AlkP) activity in these human endometrial cancer cells is markedly stimulated by estrogens.
Because of the potential SERM character of the compounds tested, their estrogenic effects were studied in an endometrial-derived cell culture model, the human endometrial adenocarcinoma cell line Ishikawa. […] All compounds were screened at two concentrations, 0.1 and 1 µM. Its agonistic effect was compared to the vehicle control DMSO (data shown in Supplementary Materials). […] The four compounds were studied in a concentration range of 1 nM to 10 µM.
Estrogens stimulate the activity of alkaline phosphatase (AlkP) in Ishikawa cells (human endometrial adenocarcinoma cells; kindly provided by Prof. Masato Nishida, National Hospital Organization, Kasumigaura Medical Center, Japan). This enzyme activity is estimated by using the chromogen substrate (4-nitrophenylphosphate). […] The procedure was modified by Littlefield et al., 1990 [42].
After 72 h incubation, cells were harvested, washed twice with PBS, and incubated at −80 °C for about 30 min to lyse the cells. After thawing, the lysates were resuspended in reaction buffer (274 mM mannitol, 100 mM CAPS, 4 mM MgCl2, pH 10.4) containing 4 mM p-nitrophenylphosphate (NPP). After incubation for 1 h in the dark, AlkP activity was assayed by using the hydrolysis of p-nitrophenylphosphate to p-nitrophenol at pH 10.4 and the spectrometric determination of the kinetic of the product formation at 405 nm. All compounds were tested in technical triplicates and biological triplicates. Statistical analysis was performed by analysis of variance (ANOVA) and Tukey’s post-hoc test with the significance level of p < 0.05.

MCF-7 cells = experiment: NCI growth inhibition on MCF-7 (single dose and five-dose, SRB); format: cell-based, human; conditions: for Growth Inhibition on MCF-7 (%) / inhibition at 10 µM: 10 µM; for inhibition at 10 µM / GI50: Homo sapiens, MCF7; for GI50: MCF-7, five-dose assay, 48 h
Method: Compounds were submitted to the Developmental Therapeutics Program (DTP) of the National Cancer Institute (NCI). The program uses a panel of 60 human tumor cell lines representing nine tissue types, including leukemia, non-small cell lung cancer (NSCLC), melanoma, colon cancer, ovarian cancer, CNS cancer, renal cancer, prostate cancer, and breast cancer, to screen for potential new anti-cancer agents. […] Primary screening of synthesized compounds was performed by testing a single high dose of 10 µM in the full NCI-60 panel. The percent growth of treated cells relative to the no-drug control and relative to the time zero number of cells was measured, and a mean graph was provided. The percentage inhibition was then calculated by subtracting the values obtained from 100.
All compounds were subjected to the NCI in vitro disease-oriented human cells screening panel assay. The human tumor cell lines of the cancer-screening panel are grown in RPMI 1640 medium containing 5% fetal bovine serum and 2 mM L-glutamine. For a typical screening experiment, cells are inoculated into 96-well microtiter plates in 100 μL at plating densities ranging from 5000 to 40,000 cells/well depending on the doubling time of individual cell lines. After cell inoculation, the microtiter plates are incubated at 37 °C, 5% CO2, 95% air, and 100% relative humidity for 24 h prior to the addition of experimental drugs. After 24 h, two plates of each cell line are fixed in situ with TCA to represent a measurement of the cell population for each cell line at the time of drug addition. Experimental drugs are solubilized in dimethyl sulfoxide at 400-fold the desired final maximum test concentration and stored frozen prior to use. At the time of drug addition, an aliquot of frozen concentrate is thawed and diluted to twice the desired final maximum test concentration with complete medium containing 50 μg/mL gentamicin. Additional four, 10-fold, or ½ log serial dilutions are made to provide a total of five drug concentrations plus control. Aliquots of 100 μL of these different drug dilutions are added to the appropriate microtiter wells already containing 100 μL of medium, resulting in the required final drug concentrations. Following drug addition, the plates are incubated for an additional 48 h at 37 °C, 5% CO2, 95% air, and 100% relative humidity. For adherent cells, the assay is terminated by the addition of cold TCA. Cells are fixed in situ by the gentle addition of 50 μL of cold 50% (w/v) TCA (final concentration, 10% TCA) and incubated for 60 min at 4 °C. The supernatant is discarded, and the plates are washed five times with tap water and air-dried. Sulforhodamine B (SRB) solution (100 μL) at 0.4% (w/v) in 1% acetic acid is added to each well, and plates are incubated for 10 min at room temperature. After staining, unbound dye is removed by washing five times with 1% acetic acid, and the plates are air-dried. Bound stain is subsequently solubilized with a 10 mM trizma base, and the absorbance is read on an automated plate reader at a wavelength of 515 nm. For suspension cells, the methodology is the same except that the assay is terminated by fixing settled cells at the bottom of the wells by gently adding 50 μL of 80% TCA (final concentration, 16% TCA). Compounds are screened at a dose of 10 µM, hits showing mean growth inhibition over 60 cell lines >50% are escalated for 5-dose screening assay. To construct a dose-response curve, about 60 cell lines of nine tumor subpanels were incubated with five concentrations (0.01–100 μM) for each compound. Three response parameters (GI50, TGI, and LC50) were calculated for each cell line.

| Compound | Relative alkaline phosphatase activity ([1]; 1 µM) | inhibition at 10 µM (MCF-7 cells) [%] | also measured |
| --- | --- | --- | --- |
| COc1ccc(C(C)=C(c2ccc(O)cc2)c2ccc(Cl)cc2)cc1F [Compound 3, E/Z-4-[1-(4-Chlorophenyl)-2-(3-fluoro-4-methoxyphenyl)propenyl]-phenol] | 1.13 ± 0.43 |  | Growth Inhibition on MCF-7 (%) (MCF-7 cells): No inhibition |
| COc1cc(C(C)=C(c2ccc(O)cc2)c2ccc(Cl)cc2)ccc1F [Compound 4, E/Z-4-[1-(4-Chlorophenyl)-2-(4-fluoro-3-methoxyphenyl)propenyl]-phenol] | 1.10 ± 0.39 |  | Growth Inhibition on MCF-7 (%) (MCF-7 cells): No inhibition |
| CC(=C(c1ccc(Cl)cc1)c1ccc(OCCCN(C)C)cc1)c1ccccc1 [Compound 5, E/Z-(3-{4-[1-(4-Chloro-phenyl)-2-phenyl-propenyl]-phenoxy}-propyl)-dimethyl-amine] | 1.08 ± 0.33 | 55 | Relative alkaline phosphatase activity ([1]; 1 nM): 0.93 ± 0.64; Relative alkaline phosphatase activity ([1]; 10 nM): 0.95 ± 0.37; Relative alkaline phosphatase activity ([1]; 100 nM): 1.05 ± 0.30; Relative alkaline phosphatase activity ([1]; 10 µM): 0.21 ± 0.16; effect on AlkP activity (in words) [1]: No significant effects |
| CC(=C(c1ccc(Cl)cc1)c1ccc(OCCN2CCCC2)cc1)c1ccccc1 [Compound 6, E/Z-1-(2-{4-[1-(4-Chloro-phenyl)-2-phenyl-propenyl]-phenoxy}-ethyl)-pyrrolidine] | 2.55 ± 1.35 | 66.2 |  |
| CC(=C(c1ccc(Cl)cc1)c1ccc(OCCN2CCCCC2)cc1)c1ccccc1 [Compound 7, E/Z-1-(2-{4-[1-(4-Chloro-phenyl)-2-phenyl-propenyl]-phenoxy}-ethyl)-piperidine] | 2.55 ± 1.80 | 56.4 |  |
| CC(=C(c1ccc(Cl)cc1)c1ccc(OCCN2CCOCC2)cc1)c1ccccc1 [Compound 8, E/Z-4-(2-{4-[1-(4-Chloro-phenyl)-2-phenyl-propenyl]-phenoxy}-ethyl)-morpholine] | 1.16 ± 0.15 | 30.9 |  |
| CC(=C(c1ccc(Cl)cc1)c1ccc(OCCN2CCCCCC2)cc1)c1ccccc1 [Compound 9, E/Z-1-(2-{4-[1-(4-Chloro-phenyl)-2-phenyl-propenyl]-phenoxy}-ethyl)-azepane] | 2.94 ± 1.29 | 24 |  |
| COc1ccc(C(C)=C(c2ccc(Cl)cc2)c2ccc(OCCCN(C)C)cc2)cc1 [Compound 10, E/Z-(3-{4-[1-(4-Chloro-phenyl)-2-(4-methoxy-phenyl)-propenyl]-phenoxy}-propyl)-dimethyl-amine] | 2.55 ± 1.80 | 63.1 |  |
| COc1ccc(C(C)=C(c2ccc(Cl)cc2)c2ccc(OCCN3CCCC3)cc2)cc1 [Compound 11, E/Z-1-(2-{4-[1-(4-Chloro-phenyl)-2-(4-methoxy-phenyl)-propenyl]-phenoxy}-ethyl)-pyrrolidine] |  | 87 | Relative alkaline phosphatase activity ([1]; 1 nM): 1.25 ± 0.61; Relative alkaline phosphatase activity ([1]; 10 nM): 1.13 ± 0.31; Relative alkaline phosphatase activity ([1]; 100 nM): 1.75 ± 0.50; Relative alkaline phosphatase activity ([1]; 10 µM): 1.36 ± 0.38; effect on AlkP activity (in words) [1]: increase the AlkP activity in a dose-pendent manner; GI50 (MCF-7 cells): 890 nM |
| COc1ccc(C(C)=C(c2ccc(Cl)cc2)c2ccc(OCCN3CCCCC3)cc2)cc1 [Compound 12, E/Z-1-(2-{4-[1-(4-Chloro-phenyl)-2-(4-methoxy-phenyl)-propenyl]-phenoxy}-ethyl)-piperidine] |  | 79.7 | Relative alkaline phosphatase activity ([1]; 1 nM): 0.95 ± 0.02; Relative alkaline phosphatase activity ([1]; 10 nM): 0.96 ± 0.01; Relative alkaline phosphatase activity ([1]; 100 nM): 1.14 ± 0.01; Relative alkaline phosphatase activity ([1]; 10 µM): 0.42 ± 0.13; effect on AlkP activity (in words) [1]: increase the AlkP activity in a dose-pendent manner; GI50 (MCF-7 cells): 600 nM |
| COc1ccc(C(C)=C(c2ccc(Cl)cc2)c2ccc(OCCN3CCOCC3)cc2)cc1 [Compound 13, E/Z-4-(2-{4-[1-(4-Chloro-phenyl)-2-(4-methoxy-phenyl)-propenyl]-phenoxy}-ethyl)-morpholine] | 3.74 ± 2.05 | 1.21 |  |
| COc1cc(C(C)=C(c2ccc(Cl)cc2)c2ccc(OCCCN(C)C)cc2)ccc1F [Compound 22, E/Z-(3-{4-[1-(4-Chlorophenyl)-2-(4-fluoro-3-methoxyphenyl)-propenyl]-phenoxy}-propyl)-dimethyl-amine] |  | 33.2 |  |
| COc1cc(C(C)=C(c2ccc(Cl)cc2)c2ccc(OCCN3CCCC3)cc2)ccc1F [Compound 23, E/Z-1-(2-{4-[1-(4-Chlorophenyl)-2-(4-fluoro-3-methoxyphenyl)-propenyl]-phenoxy}-ethyl)-pyrrolidine] |  | 73.5 |  |
| COc1cc(C(C)=C(c2ccc(Cl)cc2)c2ccc(OCCN3CCCCC3)cc2)ccc1F [Compound 24, E/Z-1-(2-{4-[1-(4-Chlorophenyl)-2-(4-fluoro-3-methoxyphenyl)-propenyl]-phenoxy}-ethyl)-piperidine] |  | 49.3 |  |
| COc1cc(C(C)=C(c2ccc(Cl)cc2)c2ccc(OCCN3CCOCC3)cc2)ccc1F [Compound 25, E/Z-4-(2-{4-[1-(4-Chlorophenyl)-2-(4-fluoro-3-methoxyphenyl)-propenyl]-phenoxy}-ethyl)-morpholine] |  | 2.75 |  |
| COc1cc(C(C)=C(c2ccc(Cl)cc2)c2ccc(OCCN3CCCCCC3)cc2)ccc1F [Compound 26, E/Z-1-(2-{4-[1-(4-Chlorophenyl)-2-(4-fluoro-3-methoxyphenyl)-propenyl]-phenoxy}-ethyl)-azepane] |  | 36.5 |  |
| COc1cc(C(C)=C(c2ccc(Cl)cc2)c2ccc(OCCN(C)C)cc2)ccc1F [Compound 27, E/Z-(2-{4-[1-(4-Chlorophenyl)-2-(4-fluoro-3-methoxyphenyl)-propenyl]-phenoxy}-ethyl)-dimethyl-amine] |  | 68.3 |  |
| CCN(CC)CCOc1ccc(C(=C(C)c2ccc(F)c(OC)c2)c2ccc(Cl)cc2)cc1 [Compound 28, E/Z-(2-{4-[1-(4-Chlorophenyl)-2-(4-fluoro-3-methoxyphenyl)-propenyl]-phenoxy}-ethyl)-diethyl-amine] |  | > 100 | GI50 (MCF-7 cells): 2170 nM |

Source: article PMC8621172, “Manipulating Estrogenic/Anti-Estrogenic Activity of Triphenylethylenes towards Development of Novel Anti-Neoplastic SERMs” (International Journal of Molecular Sciences, 2021)
